Measurements: article PMC11310889, “Ribosomal translation of fluorinated non-canonical amino acids for de novo biologically active fluorinated macrocyclic peptides” (Chemical Science, 2024)

Columns and labels:
[1] = test system: E. coli W3110; assay: Propidium iodide (PI) assay of membrane permeability; assay type: cell-based, Escherichia coli; conditions: E. coli W3110 logarithmic-phase, 15 min treatment with 5 μM peptide, PI 25 μg/mL 15 min (Fig. 5A)
Protocol: Propidium Iodide (PI) assay
Thaw the previously preserved E. coli W3110 cells from the -80 °C freezer. Scrape a small amount and inoculate it into 1 mL of LB liquid medium. Culture overnight in a 37°C shaker. Next day, inoculate the strain into fresh LB liquid medium at a 1:100 ratio and incubate at 37 °C until the OD600 reaches approximately 0.47 to 0.53. Take 100 μL of the E. coli W3110 cells and centrifuge for 2 min at 13,000 rpm. Discard the supernatant. For the untreated group, resuspend the cells in 100 μL of PBS. For the peptide treatment group, resuspend the cells in 99 μL of ddH2O and add 1 […]
μL of 0.5 mM of the different peptides. Mix thoroughly and let react for 15 min. After the treatment, take 80 μL of each sample and incubate with PI at a final concentration of 25 μg/mL for 15 min.
After incubation, wash the samples with the same amount of PBS, centrifuge, and resuspend at a 10-fold concentration. Observe the images using a Nikon Eclipse Ci-L Plus microscope. […]
(§1) Incubate overnight in a 37°C shaker. […]
Centrifuge again at
6100g for 10 min, discard the supernatant, and add 500 μL of ddH2O containing 2.5% glutaraldehyde. Resuspend and fix the cells overnight at 4°C. Centrifuge at 6100g for 10 min, remove the supernatant, and wash twice with ddH2O, letting it stand for 15 min each time, followed by centrifugation at 6100g for 10 min. Discard the supernatant. Dehydrate the sample with ethanol at concentration gradients of 30%, 60%, and 90%, without resuspension, centrifuging at 6100g for […]

[2] = test system: E. coli W3110; assay: Protein leakage assay; assay type: cell-based, Escherichia coli; conditions: E. coli W3110, 5 μM peptide, 15 min, pellet analysed by SDS-PAGE, compared to R9-treated sample (Fig. S10)
Protocol: Thaw the previously preserved E. coli W3110 cells from the -80 °C freezer. Scrape a small amount and inoculate it into 1 mL of LB liquid medium. Incubate overnight in a 37°C shaker. Next day, transfer the culture to fresh LB liquid medium at a 1:100 inoculation ratio and incubate at 37 °C until the OD600 reaches approximately 0.47 to 0.53. Collect 300 μL of the E. coli W3110 cells and centrifuge for 2 min at 13,000 rpm, discarding the supernatant afterward. Resuspend the untreated group in 300 μL of PBS, and the peptide treatment group in 297 μL of ddH2O. Add 3 μL of 0.5 mM different peptides to the treatment group, mix well, and allow to react for 15 min. After the treatment, resuspend all samples in 15 μL of 6×SDS loading buffer and 15 μL of 10% SDS. All samples were heated at 99.9°C for 15 min, followed by 10% SDS-PAGE analysis and staining with Coomassie brilliant blue R250. […]
as §1

Substance | PI red fluorescence (cell membrane permeability) [1] | cellular protein leakage [2]
Ac-(4-F-DPhe)IWHKSLT(4-F-DPhe)NYLHTCGS(Acp)RRRRRRRRR-NH2 (sidechain bridge or staple) [BAM-f2-R9, BAM-f2 conjugated with cell-penetrating peptide R9] | notable red fluorescence intensity | partial cellular protein leakage
Ac-(4-F-DPhe)KHFIY(4-F-β-Phe)YRSPICGS(Acp)RRRRRRRRR-NH2 (sidechain bridge or staple) [BAM-β3-R9, BAM-β3 conjugated with cell-penetrating peptide R9] | notable red fluorescence intensity | partial cellular protein leakage
